Measured values from ChEMBL document CHEMBL6177943, “Recent advances in small molecule design strategies against hepatic fibrosis” (Eur J Med Chem, 2025).

Key:
[1] = Cmax in Sprague-Dawley rat at 25 mg/kg, po measured after 8 hrs; assay type: ADME, organism-based; conditions: in vivo
[2] = Anti-hepatic activity in rat HSC-T6 cells assessed as inhibition of LPS-induced cell proliferation at 10 uM incubated for 24 hrs by MTS assay relative to control; assay type: functional
LX-2 = test: Anti-fibrotic activity in human LX-2 cells assessed as inhibition of alpha-SMA mRNA expression; assay type: functional; set-up: scale not given: the % may be the effect or the level left
[3] = molecular target: Collagen alpha-1(I) chain (Homo sapiens) (UniProt P02452); test: Inhibition of COL1A1 (unknown origin) transfected in human LX-2 cells at 40 uM incubated for 24 hrs by Bright-Glo luciferase assay relative to control; assay type: cell-based
Chain of Collagen alpha-1(I) chain (Homo sapiens) (P02452 whole entry): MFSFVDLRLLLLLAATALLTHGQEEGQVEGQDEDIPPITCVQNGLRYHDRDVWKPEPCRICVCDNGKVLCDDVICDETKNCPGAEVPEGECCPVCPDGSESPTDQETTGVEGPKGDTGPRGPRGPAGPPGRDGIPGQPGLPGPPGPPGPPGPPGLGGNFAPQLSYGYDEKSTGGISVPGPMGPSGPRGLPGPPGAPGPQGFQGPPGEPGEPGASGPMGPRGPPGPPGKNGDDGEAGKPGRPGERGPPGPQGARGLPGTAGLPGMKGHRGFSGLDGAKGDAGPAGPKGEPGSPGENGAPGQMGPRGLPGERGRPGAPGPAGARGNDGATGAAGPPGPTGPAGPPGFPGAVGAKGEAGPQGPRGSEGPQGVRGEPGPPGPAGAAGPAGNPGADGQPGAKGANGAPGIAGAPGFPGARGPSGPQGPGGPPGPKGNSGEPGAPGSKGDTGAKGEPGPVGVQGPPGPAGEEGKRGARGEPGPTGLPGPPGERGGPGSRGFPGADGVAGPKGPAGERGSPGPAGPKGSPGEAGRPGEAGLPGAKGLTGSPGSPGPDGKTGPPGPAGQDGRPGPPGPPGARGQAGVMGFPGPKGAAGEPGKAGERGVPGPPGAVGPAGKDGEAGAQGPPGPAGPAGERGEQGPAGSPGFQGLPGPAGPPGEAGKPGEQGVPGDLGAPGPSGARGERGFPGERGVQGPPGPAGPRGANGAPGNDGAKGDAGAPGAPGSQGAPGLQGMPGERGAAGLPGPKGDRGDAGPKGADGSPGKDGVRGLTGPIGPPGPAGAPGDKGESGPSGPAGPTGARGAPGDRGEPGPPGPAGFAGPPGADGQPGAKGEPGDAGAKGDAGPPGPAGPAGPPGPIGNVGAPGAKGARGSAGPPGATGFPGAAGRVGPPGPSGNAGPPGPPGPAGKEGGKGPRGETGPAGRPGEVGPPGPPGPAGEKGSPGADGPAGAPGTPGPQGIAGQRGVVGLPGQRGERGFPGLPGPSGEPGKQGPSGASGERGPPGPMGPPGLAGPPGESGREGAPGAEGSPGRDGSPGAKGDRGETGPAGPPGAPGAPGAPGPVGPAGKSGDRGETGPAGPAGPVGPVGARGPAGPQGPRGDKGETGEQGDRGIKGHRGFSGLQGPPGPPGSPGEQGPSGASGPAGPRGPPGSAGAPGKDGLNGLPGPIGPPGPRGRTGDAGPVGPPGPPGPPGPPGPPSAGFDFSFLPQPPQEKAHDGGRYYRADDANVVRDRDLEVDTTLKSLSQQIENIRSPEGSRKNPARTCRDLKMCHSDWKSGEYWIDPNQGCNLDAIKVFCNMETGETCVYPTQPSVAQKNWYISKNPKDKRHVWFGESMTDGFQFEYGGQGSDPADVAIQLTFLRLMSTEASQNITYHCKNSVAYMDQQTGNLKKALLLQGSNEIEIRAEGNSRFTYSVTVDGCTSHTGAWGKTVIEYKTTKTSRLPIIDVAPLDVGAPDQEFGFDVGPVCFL

O=c1cccc2n1CC1CC2CN(Cc2cc(Cl)ccc2Cl)C1 (stereo not given)
Cmax [1]: 960 nM

COC(=O)c1cc2cc(OC)c(OC)cc2c2cc(C)ccc12
inhibition at 10 µM [2]: 34.2%

CCCCCCCCN(C)C(=O)c1cc(O)c(O)c(O)c1
Activity (LX-2): 47.7%

O=c1cccc2n1C[C@@H]1CNC[C@H]2C1
inhibition [3]: 90%

C1=C2CCCN[C@H]2[C@@H]2C[C@H]1[C@H]1CCCCN1C2
inhibition [3]: 4.7%
